For 26 compounds, IC50 results are on record in US9433622B2, “Pyrimidine compounds useful in the treatment of diseases mediated by IKKE and/or TBK1 mechanisms” (DOMAINEX LIMITED, priority 2013, dated 2016).

One test concerns the target IKKε (Homo sapiens (Human), UniProt Q14164). The test can be described thus: Lanthascreen TR-FRET kinase inhibition assay, IKKε. The following applies: 20 μM ATP (apparent Km), 2 nM kinase, 1 h. It counts as biochemical. The procedure: (§1) Compounds of the invention (synthesised as described below) were tested for activity against the IKKε and TBK-1 enzyme as follows:
(§2) Inhibitions studies were performed using a time-resolved fluorescence-based Lanthascreen™ assay. Phosphorylation of a fluorescein-labelled substrate peptide is measured using terbium-labeled phosphospecific antibodies.
(§3) Kinase inhibition assays (10 μL) were performed at 20° C. in 384-well plate format. […] The final reaction conditions contained 400 nM fluorescein-IkBα substrate ([…]), 20 μM ATP, 2 nM or 8 nM IKKε or TBK1 kinase respectively, and 3% DMSO in kinase assay buffer consisting of 50 mM HEPES (pH 7.5), 10 mM MgCl, 1 mM EGTA, 0.01% Brij-35.
(§4) Compound dilutions were prepared from 10 mM DMSO stocks by dilution into DMSO.
(§5) The kinase phosphorylation assay was initiated by the addition of the kinase and the reaction was allowed to proceed for 1 h or 2.5 h for IKKε and TBK-1 kinase respectively.

A further test addresses TBK1 (Homo sapiens (Human), UniProt Q9UHD2). Kind of test: Lanthascreen TR-FRET kinase inhibition assay, TBK1. The format is biochemical. The following applies: 20 μM ATP (apparent Km), 8 nM kinase, 2.5 h. The procedure:
as §1, §2, §3, §4, §5

pIC50: −log10 of the molar value.

TBK1, sequence (Q9UHD2 whole entry): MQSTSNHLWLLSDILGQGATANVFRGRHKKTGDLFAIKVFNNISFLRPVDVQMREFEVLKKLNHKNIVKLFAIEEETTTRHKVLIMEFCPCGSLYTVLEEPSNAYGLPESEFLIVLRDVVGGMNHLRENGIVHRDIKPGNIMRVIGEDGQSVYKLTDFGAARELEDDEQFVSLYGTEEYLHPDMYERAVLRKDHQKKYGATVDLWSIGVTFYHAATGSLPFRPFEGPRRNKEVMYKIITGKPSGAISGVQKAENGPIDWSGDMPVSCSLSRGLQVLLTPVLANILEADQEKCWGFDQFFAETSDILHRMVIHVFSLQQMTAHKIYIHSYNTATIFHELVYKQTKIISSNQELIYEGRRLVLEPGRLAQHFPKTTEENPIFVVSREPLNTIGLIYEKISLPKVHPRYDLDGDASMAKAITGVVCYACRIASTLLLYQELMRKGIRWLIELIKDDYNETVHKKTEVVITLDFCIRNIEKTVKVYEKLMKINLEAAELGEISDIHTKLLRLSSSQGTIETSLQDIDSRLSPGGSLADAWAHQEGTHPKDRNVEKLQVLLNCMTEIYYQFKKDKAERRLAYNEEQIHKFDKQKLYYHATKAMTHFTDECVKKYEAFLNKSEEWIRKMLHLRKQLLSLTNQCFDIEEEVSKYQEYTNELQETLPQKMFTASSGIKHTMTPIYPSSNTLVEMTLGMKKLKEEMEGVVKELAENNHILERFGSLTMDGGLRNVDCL
IKKε, sequence (Q14164 whole entry): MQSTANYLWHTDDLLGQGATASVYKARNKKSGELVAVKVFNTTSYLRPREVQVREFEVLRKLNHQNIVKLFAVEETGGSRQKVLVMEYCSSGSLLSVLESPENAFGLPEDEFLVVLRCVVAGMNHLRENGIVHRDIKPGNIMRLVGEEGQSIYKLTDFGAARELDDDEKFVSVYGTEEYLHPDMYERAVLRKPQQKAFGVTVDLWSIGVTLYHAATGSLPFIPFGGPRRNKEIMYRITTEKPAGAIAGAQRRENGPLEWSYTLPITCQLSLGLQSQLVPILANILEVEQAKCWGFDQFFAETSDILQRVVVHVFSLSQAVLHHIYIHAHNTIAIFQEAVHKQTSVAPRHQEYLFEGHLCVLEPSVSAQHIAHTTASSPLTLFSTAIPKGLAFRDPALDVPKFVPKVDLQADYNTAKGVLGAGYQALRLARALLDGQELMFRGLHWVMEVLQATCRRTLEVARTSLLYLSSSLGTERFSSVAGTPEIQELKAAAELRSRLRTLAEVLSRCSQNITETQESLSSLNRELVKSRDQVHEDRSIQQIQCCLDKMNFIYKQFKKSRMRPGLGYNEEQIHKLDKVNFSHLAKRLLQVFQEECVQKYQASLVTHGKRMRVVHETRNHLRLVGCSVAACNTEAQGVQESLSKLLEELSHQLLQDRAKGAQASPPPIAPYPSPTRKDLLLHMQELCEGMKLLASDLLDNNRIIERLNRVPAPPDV

For the compound `CC(NCc1ccccc1)C(=O)Nc1ccc(Nc2nccc(-c3cnc(N4CC[C@H](F)C4)c(C#N)c3)n2)cn1` (stereo partly drawn) [DMX-55, 2-Benzylamino-N-(5-{4-[5-cyano-6-((S)-3-fluoro-pyrrolidin-1-yl)-pyridin-3-yl]-pyrimidin-2-ylamino}-pyridin-2-yl)-propionamide], the negative-log IC50 (pIC50) – broadly, −log10 of the IC50, conventionally taken in molar units – is greater than 7.00 on IKKε and greater than 7.52 at TBK1.

`CC(N)C(=O)Nc1ccc(Nc2nccc(-c3cnc(N4CC[C@H](F)C4)c(C#N)c3)n2)cn1` (stereo partly drawn) [DMX-56, 2-Amino-N-(5-{4-[5-cyano-6-((S)-3-fluoro-pyrrolidin-1-yl)-pyridin-3-yl]-pyrimidin-2-ylamino)-pyridin-2-yl)-propionamide]: the pIC50 at IKKε was greater than 7.52; on TBK1, greater than 7.00.

For `N#Cc1nc(-c2ccnc(Nc3ccc(N4CCOCC4)cc3)n2)ccc1N1CC[C@H](O)C1` [DMX-57, 3-((S)-3-Hydroxy-pyrrolidin-1-yl)-6-[2-(4-morpholin-4-yl-phenylamino)-pyrimidin-4-yl]-pyridine-2-carbonitrile], the pIC50 at IKKε was greater than 7.52; on TBK1, greater than 7.82.

As to `N#Cc1nc(-c2ccnc(Nc3ccc(N4CCOCC4)cc3)n2)ccc1N1CCCC1` [DMX-58, 6-[2-(4-Morpholin-4-yl-phenylamino)-pyrimidin-4-yl]-3-pyrrolidin-1-yl-pyridine-2-carbonitrile], the pIC50 at IKKε and on TBK1 was greater than 7.82 each time.

Turning to `Cn1cc(Nc2nccc(-c3ccc(N4CC[C@H](O)C4)c(C#N)n3)n2)cn1` [DMX-59, 3-((S)-3-Hydroxy-pyrrolidin-1-yl)-6-[2-(1-methyl-1H-pyrazol-4-ylamino)-pyrimidin-4-yl]-pyridine-2-carbonitrile], the pIC50 on IKKε and on TBK1 was greater than 7.00 throughout.

For `Cn1cc(Nc2nccc(-c3ccc(N4CCC(C(N)=O)CC4)c(C#N)n3)n2)cn1` [DMX-60, 2′-Cyano-6′-[2-(1-methyl-1H-pyrazol-4-ylamino)-pyrimidin-4-yl]-3,4,5,6-tetrahydro-2H-[1,3′]bipyridinyl-4-carboxylic acid amide], the pIC50 at IKKε and on TBK1 was greater than 7.00 each time.

On to `N#Cc1cc(-c2ccnc(Nc3ccnc(N4CCOCC4)c3)n2)cnc1N1CC[C@H](F)C1` [DMX-61, 2-((S)-3-Fluoro-pyrrolidin-1-yl)-5-[2-(2-morpholin-4-yl-pyridin-4-ylamino)-pyrimidin-4-yl]-nicotinonitrile], for which the pIC50 at IKKε and at TBK1 was greater than 7.82 in each case.

With `CC(C)(N)C(=O)Nc1ccc(Nc2nccc(-c3cnc(N4CC[C@H](F)C4)c(C#N)c3)n2)cn1` [DMX-62, 2-Amino-N-(5-{4-[5-cyano-6-((S)-3-fluoro-pyrrolidin-1-yl)-pyridin-3-yl]-pyrimidin-2-ylamino}-pyridin-2-yl)-2-methyl-propionamide], the pIC50 is greater than 7.52 at IKKε and greater than 7.00 at TBK1.

Take `N#Cc1cc(-c2ccnc(Nc3cn[nH]c3)n2)cnc1N1CC[C@H](F)C1` [DMX-63, 2-((S)-3-Fluoro-pyrrolidin-1-yl)-5-[2-(1H-pyrazol-4-ylamino)-pyrimidin-4-yl]-nicotinonitrile]: the pIC50 at IKKε and on TBK1 was greater than 7.82 in each case.

Regarding `N#Cc1cc(-c2ccnc(Nc3ccn[nH]3)n2)cnc1N1CC[C@H](F)C1` [DMX-64, 2-((S)-3-Fluoro-pyrrolidin-1-yl)-5-[2-(2H-pyrazol-3-ylamino)-pyrimidin-4-yl]-nicotinonitrile], the pIC50 on IKKε was greater than 7.00; on TBK1 it was greater than 6.00.

Consider `N#Cc1cc(-c2ccnc(Nc3ccc(NC(=O)[C@@H]4CCCN4)nc3)n2)cnc1N1CC[C@H](F)C1` [DMX-65, (S)-Pyrrolidine-2-carboxylic acid (5-{4-[5-cyano-6-((S)-3-fluoro-pyrrolidin-1-yl)-pyridin-3-yl]-pyrimidin-2-ylamino}-pyridin-2-yl)-amide], for which the pIC50 on IKKε is greater than 7.52; on TBK1 it was greater than 7.00.

Consider `N#Cc1cc(-c2ccnc(Nc3ccc(NC(=O)CN4CCCC4)nc3)n2)cnc1N1CC[C@H](F)C1` [DMX-66, N-(5-{4-[5-Cyano-6-((S)-3-fluoro-pyrrolidin-1-yl)-pyridin-3-yl]-pyrimidin-2-ylamino}-pyridin-2-yl)-2-pyrrolidin-1-yl-acetamide], for which the pIC50 at IKKε is greater than 7.00; at TBK1, greater than 7.52.

With `N#Cc1cc(-c2ccnc(Nc3ccc(NCCN4CCOCC4)nc3)n2)cnc1N1CC[C@H](F)C1` [DMX-67, 2-((S)-3-Fluoro-pyrrolidin-1-yl)-5-{2-[6-(2-morpholin-4-yl-ethylamino)-pyridin-3-ylamino]-pyrimidin-4-yl}-nicotinonitrile], the pIC50 on IKKε was greater than 7.82; at TBK1 it was greater than 7.52.

For `N#Cc1cc(-c2ccnc(Nc3ccc(CN4CCOCC4)nc3)n2)cnc1N1CC[C@H](F)C1` [DMX-68, 2-((S)-3-Fluoro-pyrrolidin-1-yl)-5-[2-(6-morpholin-4-ylmethyl-pyridin-3-ylamino)-pyrimidin-4-yl]-nicotinonitrile], the pIC50 on IKKε and at TBK1 was greater than 7.82 in each case.

For the compound `N#Cc1cc(-c2ccnc(Nc3ccc(NC(=O)CN4CC[C@H](F)C4)nc3)n2)cnc1N1CC[C@H](F)C1` [DMX-69, N-(5-{4-[5-Cyano-6-((S)-3-fluoro-pyrrolidin-1-yl)-pyridin-3-yl]-pyrimidin-2-ylamino}-pyridin-2-yl)-2-((S)-3-fluoro-pyrrolidin-1-yl)-acetamide], the pIC50 at IKKε was greater than 7.52; at TBK1, greater than 7.00.

`N#Cc1cc(-c2ccnc(Nc3ccc(OCCN4CC[C@H](F)C4)nc3)n2)cnc1N1CC[C@H](F)C1` [DMX-70, 2-((S)-3-Fluoro-pyrrolidin-1-yl)-5-(2-{6-[2-((S)-3-fluoro-pyrrolidin-1-yl)-ethoxy]-pyridin-3-ylamino}-pyrimidin-4-yl)-nicotinonitrile]: the pIC50 at IKKε and on TBK1 was greater than 7.00 each time.

Consider `N#Cc1cc(-c2ccnc(Nc3ccnc(N4CCOCC4)c3)n2)cnc1N1CC[C@H](O)C1` [DMX-71, 2-((S)-3-Hydroxy-pyrrolidin 1-yl)-5-[2-(2-morpholin-4-yl-pyridin-4-ylamino)-pyrimidin-4-yl]-nicotinonitrile], for which the pIC50 on IKKε and at TBK1 was greater than 7.52 throughout.

As to `COCCNc1cc(Nc2nccc(-c3cnc(N4CC[C@H](F)C4)c(C#N)c3)n2)ccn1` [DMX-72, 2-((S)-3-Fluoro-pyrrolidin-1-yl)-5-{2-[2-(2-methoxy-ethylamino)-pyridin-4-ylamino]-pyrimidin-4-yl}-nicotinonitrile], the pIC50 at IKKε was greater than 7.52; at TBK1, greater than 7.82.

`N#Cc1cc(-c2ccnc(Nc3cccc(=O)[nH]3)n2)cnc1N1CC[C@H](F)C1` [DMX-73, 2-((S)-3-Fluoro-pyrrolidin-1-yl)-5-[2-(6-oxo-1,6-dihydro-pyridin-2-ylamino)-pyrimidin-4-yl]-nicotinonitrile]: the negative logarithm of the IC50 (pIC50) at IKKε and at TBK1 was greater than 6.00 each time.

Consider `CN(C(=O)CN1CCOCC1)c1ccc(Nc2nccc(-c3cnc(N4CC[C@H](F)C4)c(C#N)c3)n2)cn1` [DMX-74, N-(5-{4-[5-Cyano-6-((S)-3-fluoro-pyrrolidin-1-yl)-pyridin-3-yl]-pyrimidin-2-ylamino}-pyridin-2-yl)-N-methyl-2-morpholin-4-yl-acetamide], for which the pIC50 at IKKε and on TBK1 was greater than 7.00 in each case.

Turning to `CN(C(=O)CN1CCOCC1)c1ccc(Nc2nccc(-c3cnc(N4CC[C@H](O)C4)c(C#N)c3)n2)cn1` [DMX-75, N-(5-{4-[5-Cyano-6-((S)-3-hydroxy-pyrrolidin-1-yl)-pyridin-3-yl]-pyrimidin-2-ylamino}-pyridin-2-yl)-N-methyl-2-morpholin-4-yl-acetamide], the pIC50 at IKKε and on TBK1 was greater than 6.00 throughout.

For `CN1Cc2ccc(Nc3nccc(-c4cnc(N5CC[C@H](F)C5)c(C#N)c4)n3)cc2C1` [DMX-76, 2-((S)-3-Fluoro-pyrrolidin-1-yl)-5-[2-(2-methyl-2,3-dihydro-1H-isoindol-5-ylamino)-pyrimidin-4-yl]-nicotinonitrile], the pIC50 at IKKε and at TBK1 was greater than 7.82 throughout.

For `COCCNCc1ccc(Nc2nccc(-c3cnc(N4CC[C@H](F)C4)c(C#N)c3)n2)cn1` [DMX-77, 2-((S)-3-Fluoro-pyrrolidin-1-yl)-5-(2-{6-[(2-methoxy-ethylamino)-methyl]-pyridin-3-ylamino}-pyrimidin-4-yl)-nicotinonitrile], the negative-log IC50 (pIC50) on IKKε and at TBK1 was greater than 7.00 each time.

Turning to `C[C@H]1COCCN1Cc1cc(Nc2nccc(-c3cnc(N4CC[C@H](F)C4)c(C#N)c3)n2)ccn1` [DMX-78, 2-((S)-3-Fluoro-pyrrolidin-1-yl)-5-{2-[2-((S)-3-methyl-morpholin-4-ylmethyl)-pyridin-4-ylamino]-pyrimidin-4-yl}-nicotinonitrile], the values for the pIC50 on IKKε and at TBK1 were greater than 7.52 and greater than 7.82, respectively.

For `C[C@H]1COCCN1Cc1ccc(Nc2nccc(-c3cnc(N4CC[C@H](F)C4)c(C#N)c3)n2)cn1` [DMX-79, 2-((S)-3-Fluoro-pyrrolidin-1-yl)-5-{2-[6-((S)-3-methyl-morpholin-4-ylmethyl)-pyridin-3-ylamino]-pyrimidin-4-yl}-nicotinonitrile], the pIC50 on IKKε was greater than 7.00; on TBK1, greater than 7.52.

With `N#Cc1cc(-c2ccnc(Nc3ccc(CN4CC[C@H](F)C4)nc3)n2)cnc1N1CC[C@H](F)C1` [DMX-80, 2-((S)-3-Fluoro-pyrrolidin-1-yl)-5-{2-[6-((S)-3-fluoro-pyrrolidin-1-ylmethyl)-pyridin-3-ylamino]-pyrimidin-4-yl}-nicotinonitrile], the pIC50 is greater than 7.82 at IKKε and greater than 7.52 on TBK1.
